Literature values in US20110086074A1, “COMBINATIONS OF NIACIN AND AN OXICAM” (DR. REDDY'S LABORATORIES LTD., priority 2008, published 2011).

Experiments:
[1] = n-octanol/pH 7.4 buffer

## O=C(O)c1cccnc1 [Niacin, 3-pyridinecarboxylic acid]
other
  Solubility in water: very soluble in water

## Cc1cnc(NC(=O)C2=C(O)c3ccccc3S(=O)(=O)N2C)s1 [Meloxicam, 4-hydroxy-2-methyl-N-(5-methyl-2-thiazolyl)-2H-1,2-benzothiazine-3-carboxamide-1,1-dioxide]
methanol
  Solubility in methanol: very slightly soluble in methanol
Strong acids and bases, compared with water
  Solubility in strong acids and bases: higher solubility observed in strong acids and bases
other
  Solubility in water: practically insoluble in water
[1]
  Apparent partition coefficient: 0.1
